The text below walks through data of ChEMBL document CHEMBL4007485, “Examining the structure-activity relationship of benzopyran-based inhibitors of the hypoxia inducible factor-1 pathway” (Bioorg Med Chem Lett, 2017).

The subject of one experiment is LN-229. The experiment is described as follows: Antitumor activity against human LN229 cells xenografted in nude mouse assessed as tumor growth inhibition at 60 mg/kg administered for 5 days in a week for 10 to 12 weeks relative to control. The format is functional.
A short description of experiment [1]: Inhibition of HIF-1 pathway in human LN229 cells harboring HRE-AP assessed sa reduction in VEGF transcription pretreated for 1 hr under normoxic condition followed by 24 hrs incubation under hypoxic condition by HRE-[…] reporter gene assay. The experiment is classed as cell-based. To be noted: LN-229. (In general: A reporter such as luciferase makes a cellular process visible.)

The nature of experiment [2]: Inhibition of HIF-1 pathway in human LN229 cells harboring HRE-AP by alkaline phosphatase reporter gene assay. The format is cell-based. To be noted: LN-229.

Each structure is given as a SMILES string. pIC50: −log10 of the molar value.

As a reminder, the pIC50 is the negative decadic logarithm of the IC50, by convention in mol/L. As to `COc1ccc(S(=O)(=O)N(Cc2ccc3c(c2)C=CC(C)(C)O3)c2ccccc2)cc1OC`, in the experiment with LN-229, the “fold change (FC)” value was found to be 6. Further, the results for the pIC50 in experiment [1] and in experiment [2] were 6.23 and 6.22, respectively.

Take `COc1ccc(S(=O)(=O)N(Cc2ccc3c(c2)C=CC(C)(C)O3)C2CCCC2)cc1OC`: the pIC50 in experiment [1] is 6.30.

With `COc1ccc(S(=O)(=O)N(Cc2ccc3c(n2)C=CC(C)(C)O3)C2CCC2)cc1OC`, the negative logarithm of the IC50 (pIC50) in experiment [1] is 6.55.

`COc1ccc(S(=O)(=O)N(Cc2ccc3c(c2)CCC(C)(C)O3)c2ccccc2)cc1OC`: the pIC50 in experiment [1] is 6.01.

As to `COc1ccc(S(=O)(=O)N(Cc2ccc([N+](=O)[O-])cc2)C2CCC2)cc1OC`, the pIC50 in experiment [1] is less than 5.30.

For `COc1ccc(S(=O)(=O)N(Cc2ccccc2[N+](=O)[O-])C2CCC2)cc1OC`, in experiment [1], the pIC50 is less than 5.30.

Take `CC1(C)C=Cc2nc(CN(C3CCC3)S(=O)(=O)c3ccc(CBr)cc3)ccc2O1`: in experiment [1], the pIC50 is 5.60.

Turning to `COc1ccc(S(=O)(=O)N(Cc2ccc3c(c2)C=CC(C)(C)O3)CC2COC2)cc1OC`, in experiment [1], the pIC50 was 5.40.

With `CCOc1ccc(S(=O)(=O)N(Cc2ccc3c(c2)C=CC(C)(C)O3)C2CCC2)cc1`, the pIC50 in experiment [1] was 5.36.

On to `COc1ccc(S(=O)(=O)N(Cc2ccc3c(c2)C=CC(C)(C)O3)C2CCC2)cc1OC`, for which the pIC50 in experiment [1] was 6.12.

With `COc1ccc(S(=O)(=O)N(Cc2cc3c(cc2Br)OC(C)(C)C=C3)c2ccccc2)cc1OC`, the pIC50 in experiment [1] was 5.51.

Consider `COc1ccc(S(=O)(=O)N(Cc2ccc3c(c2)CCO3)C2CCC2)cc1OC`, for which, in experiment [1], the negative logarithm of the IC50 (pIC50) is 5.46.

As for `COc1ccc(S(=O)(=O)N(Cc2ccc3c(c2)CCC(C)(C)O3)C2CCC2)cc1OC`, the pIC50 in experiment [1] is 6.41.

Regarding `CC1(C)C=Cc2cc(CN(c3ccccc3)S(=O)(=O)c3ccc(OC(F)(F)F)cc3)ccc2O1`, in experiment [1], the pIC50 was less than 5.30.

For `COc1ccc(S(=O)(=O)N(Cc2ccc3c(n2)CCC(C)(C)O3)C2CCC2)cc1`, in experiment [1], the pIC50 is 5.92.

Turning to `CCOc1ccc(S(=O)(=O)N(Cc2ccc3c(c2)C=CC(C)(C)O3)C2CCCC2)cc1`, the pIC50 in experiment [1] was less than 5.30.

For `COc1ccc(CCN(Cc2ccc3c(n2)C=CC(C)(C)O3)S(=O)(=O)c2ccc(OC)c(OC)c2)cc1OC`, the pIC50 in experiment [1] was less than 5.30.

Regarding `COc1ccc(S(=O)(=O)N(Cc2ccc3c(c2)C=CC(C)(C)O3)C2CCCC2)c(OC)c1`, the pIC50 in experiment [1] was 5.82.

As to `CC1(C)C=Cc2cc(CN(C3CCC3)S(=O)(=O)c3ccc(Br)cc3)ccc2O1`, the pIC50 in experiment [1] was less than 5.30.

Regarding `COc1ccc(S(=O)(=O)N(Cc2ccc3c(c2)OCO3)c2ccccc2)cc1OC`, the pIC50 in experiment [1] was less than 5.30.

As to `COc1ccc(S(=O)(=O)N(Cc2ccc(CN3CCOCC3)cc2)C2CCC2)cc1OC`, in experiment [1], the pIC50 was 6.00.

For `COc1ccc(S(=O)(=O)N(Cc2cc(C)c3c(c2)C=CC(C)(C)O3)c2ccccc2)cc1OC`, in experiment [1], the pIC50 was 5.49.

Take `COc1ccc(CN(C2CCC2)S(=O)(=O)c2ccc(OC)c(OC)c2)cc1`: the pIC50 in experiment [1] was 5.41.

For `CC1(C)C=Cc2nc(CN(C3CCC3)S(=O)(=O)c3ccc(OC(F)(F)F)cc3)ccc2O1`, in experiment [1], the pIC50 was 5.40.

On to `CC1(C)C=Cc2cc(CN(C3CCC3)S(=O)(=O)c3ccc(F)c(F)c3)ccc2O1`, for which the negative-log IC50 (pIC50) in experiment [1] was 5.34.

As to `COc1cccc(S(=O)(=O)N(Cc2ccc3c(c2)C=CC(C)(C)O3)c2ccccc2)c1`, the pIC50 in experiment [1] is 6.00.

Consider `COc1ccc(CN(C2CCC2)S(=O)(=O)c2ccc(OC)c(OC)c2)c(OC)c1`, for which the pIC50 in experiment [1] was less than 5.30.

`COc1ccc(S(=O)(=O)N(Cc2ccc[nH]2)C2CCC2)cc1OC`: the pIC50 in experiment [1] is less than 5.30.

In the case of `COc1ccc(S(=O)(=O)N(Cc2ccc3c(c2)CCC(C)(C)O3)c2ccccc2)cc1`, the pIC50 in experiment [1] is 5.49.

Consider `COc1ccc(S(=O)(=O)N(Cc2cccc3c2OC(C)(C)C=C3)c2ccccc2)cc1OC`, for which the pIC50 in experiment [1] is 5.74.

Turning to `COc1ccc(S(=O)(=O)N(Cc2ccc3c(c2)CCC(C)(C)O3)CC2COC2)cc1OC`, in experiment [1], the pIC50 was less than 5.30.

Take `CC1(C)C=Cc2cc(CN(c3ccccc3)S(=O)(=O)c3ccc(C#N)cc3)ccc2O1`: in experiment [1], the pIC50 was less than 5.30.

As for `CC1(C)C=Cc2cc(CN(C3CCC3)S(=O)(=O)c3ccc(OC(F)(F)F)cc3)ccc2O1`, the negative-log IC50 (pIC50) in experiment [1] was less than 5.30.

For the compound `COc1ccc(S(=O)(=O)N(Cc2ccc3nonc3c2)c2ccccc2)cc1OC`, the negative-log IC50 (pIC50) in experiment [1] was less than 5.30.

For the compound `COc1ccc(S(=O)(=O)N(Cc2ccc3c(c2)OCO3)C2CCC2)cc1OC`, the pIC50 in experiment [1] was 5.89.

`COc1ccc(S(=O)(=O)N(Cc2ccccc2)C2CCC2)cc1OC`: in experiment [1], the pIC50 was less than 5.30.

With `COc1ccc(S(=O)(=O)N(Cc2ccc3c(n2)CCC(C)(C)O3)C2CCC2)cc1OC`, in experiment [1], the negative-log IC50 (pIC50) is 6.60.

`CC1(C)C=Cc2cc(CN(C3CCCC3)S(=O)(=O)c3ccc(CBr)cc3)ccc2O1`: the pIC50 in experiment [1] is 5.52.

Consider `COc1ccc(S(=O)(=O)N(Cc2cc3c(cc2C)OC(C)(C)C=C3)c2ccccc2)cc1OC`, for which the pIC50 in experiment [1] is 5.48.

Take `COc1ccc(S(=O)(=O)N(Cc2ccc3c(n2)C=CC(C)(C)O3)C2CCC2)cc1`: the pIC50 in experiment [1] is 5.74.

For `Cc1noc(C)c1S(=O)(=O)N(Cc1ccc2c(c1)C=CC(C)(C)O2)C1CCC1`, the negative logarithm of the IC50 (pIC50) in experiment [1] is less than 5.30.

Turning to `CC1(C)C=Cc2cc(CN(c3ccccc3)S(=O)(=O)c3ccc(F)c(F)c3)ccc2O1`, in experiment [1], the negative-log IC50 (pIC50) was less than 5.30.
